From publication PMC7375007 (Journal of clinical pharmacology, 2019)
Like-named read-outs stand apart in the source and are kept apart here. Blank lines part the entries; values can stand above or below the compound they belong to.

Assays:
[1] = Enterohepatic circulation of mycophenolic acid; type: in vivo, human (stable renal transplant recipients); conditions: all patients
[2] = Gastrointestinal adverse effect evaluation; type: in vivo, human (stable renal transplant recipients); conditions: patients with score > 0
[3] = for Patients within or below the mycophenolic acid AUC0–12h target range: patients with mild gastrointestinal adverse effects (score 1–2); for Cmax / Tmax / AUC(0-t) / AUC / concentration at 12 h / clearance: human, plasma, oral; for AUC: Mycophenolic acid AUC6–12h, estimate of enterohepatic recirculation; for concentration at 12 h: Mycophenolic acid CP(12h); for clearance: Mycophenolic acid clearance; for Mycophenolic acid dose-normalized AUC0–12h: normalized to 1-mg mycophenolic acid dose equivalent
[4] = Tacrolimus whole-blood trough concentration; type: in vivo, human (stable renal transplant recipients); conditions: human, oral
[5] = tacrolimus- and mycophenolic acid-treated patients; ELITE-SYMPHONY study; cited from earlier work
[6] = on tacrolimus and enteric-coated mycophenolate sodium
[7] = with tacrolimus and enteric-coated mycophenolate sodium, female (n = 29), steady state
[8] = with tacrolimus and enteric-coated mycophenolate sodium, male (n = 38), steady state

SMILES: COc1c(C)c2c(c(O)c1C/C=C(\C)CCC(=O)O)C(=O)OC2 [Mycophenolic acid]
Enterohepatic circulation, frequency ([1]; with cyclosporine): 45% | Enterohepatic circulation, frequency ([1]; with tacrolimus): 78% | Enterohepatic circulation, frequency ([1]; with tacrolimus, listed as mycophenolic acid): More than 75% | Gastrointestinal adverse effect score ([2]; mycophenolic acid AUC0–12h < 30 mg·h/L (n = 22)): 1.7 ± 0.8 | Gastrointestinal adverse effect score ([2]; mycophenolic acid AUC0–12h > 60 mg h/L (n = 34)): 3.0 ± 1.7 | Gastrointestinal adverse effect score ([2]; mycophenolic acid AUC0–12h within 30–60 mg·h/L (n = 54)): 2.2 ± 1.1 | Patients within or below the mycophenolic acid AUC0–12h target range of 30–60 mg·h/L ([3]; cyclosporine and mycophenolate mofetil, patients with no gastrointestinal adverse effects): 87% | Patients within or below the mycophenolic acid AUC0–12h target range ([3]; cyclosporine): 88.5% | Cmax ([3]; female, 546 mg): 21700 ± 10600 ng/mL | Tmax ([3]; female, 546 mg): 3.16 ± 2.57 h | Cmax ([3]; female, 591 mg): 6490 ± 2300 ng/mL | Tmax ([3]; female, 591 mg): 2.07 ± 0.11 h | AUC(0-t) ([3]; female, Mycophenolic acid AUC0–12h, with cyclosporine and mycophenolate mofetil, female (n = 14), steady state): 40100 ± 13800 ng·h/mL | AUC(0-t) ([3]; female, Mycophenolic acid AUC0–12h, with tacrolimus and enteric-coated mycophenolate sodium, female (n = 29), steady state): 73400 ± 31200 ng·h/mL | AUC ([3]; female, with cyclosporine and mycophenolate mofetil, female (n = 14)): 15400 ± 5510 ng·h/mL | AUC ([3]; female, with tacrolimus and enteric-coated mycophenolate sodium, female (n = 29)): 29300 ± 24000 ng·h/mL | concentration at 12 h ([3]; female, with cyclosporine and mycophenolate mofetil, female (n = 14), steady state): 2200 ± 1000 ng/mL | concentration at 12 h ([3]; female, with tacrolimus and enteric-coated mycophenolate sodium, female (n = 29), steady state): 4300 ± 2300 ng/mL | clearance ([3]; female, African American women receiving tacrolimus): 162 mL/min | clearance ([3]; with cyclosporine, all patients): 342 mL/min | clearance ([3]; with tacrolimus, all patients): 177 mL/min | AUC(0-t) ([3]; male): 65500 ± 30600 ng·h/mL | Cmax ([3]; male, 587 mg): 19600 ± 11200 ng/mL | Tmax ([3]; male, 587 mg): 2.88 ± 2.06 h | Cmax ([3]; male, 715 mg): 10300 ± 6500 ng/mL | Tmax ([3]; male, 715 mg): 1.92 ± 1.2 h | AUC(0-t) ([3]; male, Mycophenolic acid AUC0–12h, with cyclosporine and mycophenolate mofetil, male (n = 66), steady state): 41000 ± 18400 ng·h/mL | AUC ([3]; male, with cyclosporine and mycophenolate mofetil, male (n = 66)): 12600 ± 7400 ng·h/mL | AUC ([3]; male, with tacrolimus and enteric-coated mycophenolate sodium, male (n = 38)): 23800 ± 13400 ng·h/mL | concentration at 12 h ([3]; male, with cyclosporine and mycophenolate mofetil, male (n = 66), steady state): 2100 ± 1500 ng/mL | concentration at 12 h ([3]; male, with tacrolimus and enteric-coated mycophenolate sodium, male (n = 38), steady state): 3900 ± 2200 ng/mL | Patients within the target mycophenolic acid AUC0–12h range of 30–60 mg h/L ([3]; men receiving cyclosporine and mycophenolate mofetil): 54.5% | Patients exceeding the target mycophenolic acid AUC0–12h range of 30–60 mg h/L ([3]; men receiving tacrolimus and enteric-coated mycophenolate sodium): 50% | Patients achieving target mycophenolic acid AUC0–12h of 30–60 mg·h/L ([3]; on cyclosporine and mycophenolate mofetil): 56.3% | Patients above the mycophenolic acid AUC0–12h target of 60 mg·h/L [3, 6]: 56.7% | Patients achieving target mycophenolic acid AUC0–12h of 30–60 mg·h/L [3, 6]: 34.3% | Patients exceeding the mycophenolic acid AUC0–12h target range ([3]; tacrolimus and enteric-coated mycophenolate sodium, moderate to severe gastrointestinal adverse effects (score ≥ 3)): 50% | Patients above the mycophenolic acid AUC0–12h target range ([3]; tacrolimus and enteric-coated mycophenolate sodium, patients with no gastrointestinal adverse effects): 78.6% | Lymphopenic patients with mycophenolic acid AUC0–12h > 60 mg·h/L ([3]; tacrolimus-based regimen (22 of 35)): 62.9% | Patients within or below the mycophenolic acid AUC0–12h target range ([3]; tacrolimus): 53.8% | Mycophenolic acid dose-normalized AUC0–12h ([3]; with cyclosporine and mycophenolate mofetil, female (n = 14)): 0.066 ± 0.015 mg·h/L/mg | Mycophenolic acid dose-normalized AUC0–12h ([3]; with cyclosporine and mycophenolate mofetil, male (n = 66)): 0.058 ± 0.032 mg·h/L/mg | Mycophenolic acid dose-normalized AUC0–12h ([3]; with tacrolimus and enteric-coated mycophenolate sodium, female (n = 29)): 0.127 ± 0.053 mg·h/L/mg | Mycophenolic acid dose-normalized AUC0–12h ([3]; with tacrolimus and enteric-coated mycophenolate sodium, male (n = 38)): 0.103 ± 0.045 mg·h/L/mg | Patients within the target mycophenolic acid AUC0–12h range of 30–60 mg h/L ([3]; women receiving cyclosporine and mycophenolate mofetil): 64.3% | Patients exceeding the target mycophenolic acid AUC0–12h range of 30–60 mg h/L ([3]; women receiving tacrolimus and enteric-coated mycophenolate sodium): 65.5%

Mycophenolic acid glucuronide AUC0–12h, fold higher in women than men ([3]; tacrolimus group): 1.37 fold | Mycophenolic acid glucuronide AUC0–12h [3, 7]: 1068 ± 557 mg·h/L | Mycophenolic acid glucuronide CP(12h) [3, 7]: 75.1 ± 45.2 mg/L | Mycophenolic acid glucuronide Cmax [3, 7]: 126000 ± 60000 ng/mL | Mycophenolic acid glucuronide tmax [3, 7]: 3.68 ± 2.45 h | Mycophenolic acid glucuronide AUC0–12h [3, 8]: 780 ± 336 mg·h/L | Mycophenolic acid glucuronide CP(12h) [3, 8]: 54.5 ± 28.0 mg/L | Mycophenolic acid glucuronide Cmax [3, 8]: 96700 ± 47700 ng/mL | Mycophenolic acid glucuronide tmax [3, 8]: 3.89 ± 1.76 h
SMILES: COc1c(C)c2c(c(O[C@@H]3O[C@H](C(=O)O)[C@@H](O)[C@H](O)[C@H]3O)c1C/C=C(\C)CCC(=O)O)C(=O)OC2 [Mycophenolic acid glucuronide]

concentration at 0 h ([4]; female): 7.1 ± 1.9 ng/mL | concentration at 0 h ([4]; male): 7.3 ± 2 ng/mL
SMILES: C=CC[C@@H]1/C=C(\C)C[C@H](C)C[C@H](OC)[C@H]2O[C@@](O)(C(=O)C(=O)N3CCCC[C@H]3C(=O)O[C@H](/C(C)=C/[C@@H]3CC[C@@H](O)[C@H](OC)C3)[C@H](C)[C@@H](O)CC1=O)[C@H](C)C[C@@H]2OC [Tacrolimus]
Diarrhea [5]: 25.3%
